Source: patent US7718645B2, “Substituted bicyclolactam compounds” (Pfizer Inc., priority 2007, dated 2010)
Read-outs that look alike come from different tables or passages of the source.

Target: T1, Human full-length diacylglycerol:acylCoA acyltransferase 1 (DGAT-1) (Homo sapiens, UniProt O75907)
T1 construct: Human full-length diacylglycerol:acylCoA acyltransferase 1 (DGAT-1) was expressed in Sf9 insect cells; made in house; host or cells: Sf9 insect cells (baculovirus)
T1 sequence (O75907 1-488): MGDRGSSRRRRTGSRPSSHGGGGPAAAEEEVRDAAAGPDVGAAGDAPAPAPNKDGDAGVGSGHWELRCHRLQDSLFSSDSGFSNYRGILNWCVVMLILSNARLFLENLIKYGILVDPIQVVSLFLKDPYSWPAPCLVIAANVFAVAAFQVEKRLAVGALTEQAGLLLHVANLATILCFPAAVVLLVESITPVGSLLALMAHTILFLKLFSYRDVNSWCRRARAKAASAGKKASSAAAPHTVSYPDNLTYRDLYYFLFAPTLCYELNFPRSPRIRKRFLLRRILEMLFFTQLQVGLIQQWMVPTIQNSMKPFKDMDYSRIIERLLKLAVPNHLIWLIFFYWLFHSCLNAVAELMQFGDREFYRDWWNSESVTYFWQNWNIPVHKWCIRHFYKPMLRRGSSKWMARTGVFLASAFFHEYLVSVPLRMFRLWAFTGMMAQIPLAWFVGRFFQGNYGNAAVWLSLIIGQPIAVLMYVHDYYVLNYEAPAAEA
Assay: In vitro assay for DGAT-1 inhibition ([14C]decanoylCoA, Sf9 membrane fraction)
Type: biochemical
Method: Human full-length diacylglycerol:acylCoA acyltransferase 1 (DGAT-1) was expressed in Sf9 insect cells which are then lysed and a crude membrane fraction (105,000×g pellet) was prepared.
The cells were cultured as follows. Sf9 cells (20 L) were infected with 4 mL of DGAT1 Baculovirus Infected Insect Cells (BIIC) for 72 hours in a Wave Bioreactor System 20/50P (Wave Biotec/GE Healthcare).
Crude DGAT-1 microsomes were prepared as follows. Cell pellets were washed once with ice-cold Dulbecco's phosphate-buffered saline. Cells were collected in tabletop centrifuge (Beckman GS-6KR), 15 minutes, 2000×g, 4° C. Twenty (20) mL of ice-cold Microsome Buffer (MB) was added per 5 g of cell pellet. The suspension was passed through a microfluidizer 3 times (18K psi). The lysate was transferred to centrifuge tubes and centrifuged for 20 minutes at 5000×g (Beckman-Coulter, Inc. Allegra® 64R High-Speed Refrigerated Benchtop Centrifuge, F0650 rotor) at 4° C. The supernatant was transferred to Ultracentrifuge tubes and centrifuged at […] for 1 hr in a Beckman Ti-45 rotor, 4° C. The supernatant fluid was discarded. The pellet was resuspended in 70 mL of MB by sonication. The microsome concentration was determined using Bio-Rad Protein DC Protein Assay. The microsomes were filter sterilized with a 0.22 μm filter. The samples were portioned, flash frozen and stored at −80° C.
Inhibitors in DMSO were pre-incubated with membranes before initiating the DGAT-1 reaction by the addition of decanoylCoA. […] The inhibitors were present at a range of eight concentrations to generate an apparent IC50 for each compound. […] Specifically, the eight concentrations used were 10 μM, 3 μM, 1 μM, 300 nM, 100 nM, 30 nM, 10 nM and 3 nM.
The reactions were allowed to proceed for 1.5 h at room temperature and then terminated by the addition of 10 μl of HCl (0.5 M). Reaction mixtures were neutralized by the addition of 15 μl of tris(hydroxy-methyl)aminomethane (1M, pH 8.0) and then mixed by trituration with 37.5 μl of Microscint™-E (Perkin Elmer).
Where this DGAT-1 inhibition assay was performed on a compound more than once, an inhibition range is also provided for that compound.

[1] = apparent IC50, eight inhibitor concentrations 10 μM to 3 nM, read-out: IC50
[2] = inhibition range where the assay was performed on a compound more than once, read-out: IC50 range
[3] = Examples 17-23 table, range of repeated assays, read-out: DGAT-1 IC50 Range
[4] = Examples 17-23 table, read-out: DGAT-1 IC50
[5] = Examples 24-25 table, range of repeated assays, read-out: DGAT-1 IC50 Range
[6] = Examples 24-25 table, read-out: DGAT-1 IC50

| SMILES | IC50 [1] [nM] | IC50 [2] [nM] | IC50 [3] [nM] | IC50 [4] [nM] | other results |
| --- | --- | --- | --- | --- | --- |
| Nc1ncnc2c1C(=O)N(c1ccc([C@H]3C[C@H]4C[C@@H]3C3C(C(=O)O)C34)cc1)CCO2 (mixture of isomers) [Example 57, (±)-(1R,5R,6S)-6-[4-(4-Amino-5-oxo-7,8-dihydropyrimido[5,4-f][1,4]oxazepin-6(5H)-yl)phenyl]tricyclo[3.2.1.0˜2.4˜]octane-3-carboxylic Acid] | 34.7 | 26.7 to 58.6 |  |  |  |
| C[C@H]1COc2ncnc(N)c2C(=O)N1c1ccc([C@H]2CC[C@H](CC(=O)O)CC2)cc1 [Example 5] | 33.9 |  |  |  |  |
| CCOC(=O)C[C@H]1CC[C@H](c2ccc(N3CC(C)(C)Oc4ncnc(N)c4C3=O)cc2)CC1 [Example 7, ethyl {trans-4-[4-(4-amino-8,8-dimethyl-5-oxo-7,8-dihydropyrimido[5,4-f][1,4]oxazepin-6(5H)-yl)phenyl]cyclohexyl}acetate] | 183 |  |  |  |  |
| COC(=O)C[C@H]1CC[C@H](c2ccc(N3CCOc4nc(C)nc(N)c4C3=O)cc2)CC1 [Example 9, methyl {trans-4-[4-(4-amino-2-methyl-5-oxo-7,8-dihydropyrimido[5,4-f][1,4]oxazepin-6(5H)-yl)phenyl]cyclohexyl}acetate] | 239 |  |  |  |  |
| CCC1CN(c2ccc(C3CCC(CC(=O)O)CC3)cc2)C(=O)c2c(N)ncnc2O1 (stereo not drawn) [Example 13, {4-[4-(4-Amino-8-ethyl-5-oxo-7,8-dihydro-5H-9-oxa-1,3,6-triaza-benzocyclohepten-6-yl)-phenyl]-cyclohexyl}-acetic acid] | 1330 | 1070 to 1660 |  |  |  |
| CC1COc2ncnc(N)c2C(=O)N1c1ccc(C2CCC(CC(=O)O)CC2)cc1 (stereo not drawn) [Example 15, {4-[4-(4-Amino-7-methyl-5-oxo-7,8-dihydro-5H-9-oxa-1,3,6-triaza-benzocyclohepten-6-yl)-phenyl]-cyclohexyl}-acetic acid] | 27.3 | 13.6 to 77.9 |  |  |  |
| C[C@@H]1CN(c2ccc(C3CCC(CC(=O)O)CC3)c(F)c2)C(=O)c2c(N)ncnc2O1 (stereo partly drawn) [Example 17, (R)-2-(4-(4-(4-amino-8-methyl-5-oxo-7,8-dihydropyrimido[5,4-f][1,4]oxazepin-6(5H)-yl)-2-fluorophenyl)cyclohexyl)acetic acid] |  |  | 3 to 15.5 | < 6.21 |  |
| Cc1cc(N2C[C@@H](C)Oc3ncnc(N)c3C2=O)ccc1C1CCC(CC(=O)O)CC1 (stereo partly drawn) [Example 21, (R)-2-(4-(4-(4-amino-8-methyl-5-oxo-7,8-dihydropyrimido[5,4-f][1,4]oxazepin-6(5H)-yl)-2-methylphenyl)cyclohexyl)acetic acid] |  |  | 6.1 to 37.4 | 14.8 |  |
| C[C@@H]1CN(c2ccc(C3CCC(CC(=O)O)CC3)cc2F)C(=O)c2c(N)ncnc2O1 (stereo partly drawn) [Example 22, (R)-2-(4-(4-(4-amino-8-methyl-5-oxo-7,8-dihydropyrimido[5,4-f][1,4]oxazepin-6(5H)-yl)-3-fluorophenyl)cyclohexyl)acetic acid] |  |  | 27.9 to 34.5 | 30 |  |
| C[C@@H]1CN(c2ccc([C@H]3CC[C@@H](CC(=O)O)CC3)c(F)c2)C(=O)c2c(N)ncnc2O1 [Example 24, (cis-4-{4-[(8R)-4-amino-8-methyl-5-oxo-7,8-dihydropyrimido[5,4-f][1,4]oxazepin-6(5H)-yl]-2-fluorophenyl}cyclohexyl)acetic acid] |  |  |  |  | IC50 [5]: 1.7 to 13.2 nM; IC50 [6]: 4.6 nM |
| C[C@@H]1CN(c2ccc([C@H]3CC[C@H](CC(=O)O)CC3)c(F)c2)C(=O)c2c(N)ncnc2O1 [Example 25, (trans-4-{4-[(8R)-4-amino-8-methyl-5-oxo-7,8-dihydropyrimido[5,4-f][1,4]oxazepin-6(5H)-yl]-2-fluorophenyl}cyclohexyl)acetic acid] |  |  |  |  | IC50 [5]: 10 to 17 nM; IC50 [6]: 12.3 nM |
| C[C@@H]1CN(c2ccc([C@H]3CC[C@H](CC(N)=O)CC3)cc2)C(=O)c2c(N)ncnc2O1 [Example 27, (Trans-4-{4-[(8R)-4-amino-8-methyl-5-oxo-7,8-dihydropyrimido[5,4-f][1,4]oxazepin-6(5H)-yl]phenyl}cyclohexyl)acetamide] | 52.2 | 11.4 to 68.1 |  |  |  |
| C[C@@H]1CN(c2ccc(C3CCC(CC(N)=O)CC3)c(F)c2)C(=O)c2c(N)ncnc2O1 (stereo partly drawn) [Example 28, (R)-2-(4-(4-(4-amino-8-methyl-5-oxo-7,8-dihydropyrimido[5,4-f][1,4]oxazepin-6(5H)-yl)-2-fluorophenyl)cyclohexyl)acetamide] | 11.3 | 7.3 to 19.9 |  |  |  |
| C[C@@H]1CN(c2ccc([C@H]3CC[C@H](CC#N)CC3)cc2)C(=O)c2c(N)ncnc2O1 [Example 47, (Trans-4-{4-[(8R)-4-amino-8-methyl-5-oxo-7,8-dihydropyrimido[5,4-f][1,4]oxazepin-6(5H)-yl]phenyl}cyclohexyl)acetonitrile] | 38.4 | 30.1 to 48.1 |  |  |  |

Second part, led by results:

| IC50 [1] [nM] | IC50 [2] [nM] | IC50 [3] [nM] | IC50 [4] [nM] | SMILES | other results |
| --- | --- | --- | --- | --- | --- |
| 84.3 |  |  |  | COC(=O)CC1CC=C(c2ccc(N3CCOc4ncnc(N)c4C3=O)cc2)CC1 (racemic) [Example 52, Methyl(+)-{4-[4-(4-Amino-5-oxo-7,8-dihydropyrimido[5,4-f][1,4]oxazepin-6(5H)-yl)phenyl]cyclohex-3-en-1-yl}acetate] |  |
| < 10 | 3 to 27.2 |  |  | Nc1ncnc2c1C(=O)N(c1ccc([C@@H]3CC[C@@H]4[C@@H](CC(=O)O)CC[C@@H]43)cc1)CCO2 (racemic) [Example 55, ±{(1R,3aS,4R,6aR)4-[4-(4-Amino-5-oxo-7,8-dihydropyrimido[5,4-f][1,4]oxazepin-6(5H)-yl)phenyl]octahydropentalen-1-yl}acetic Acid] |  |
| 36.4 | 33.8 to 39.3 |  |  | Nc1ncnc2c1C(=O)N(c1ccc(C3=CCC(CC(=O)O)CC3)cc1)CCO2 (single isomer, unassigned; (+)) [Example 53, (+)-{4-[4-(4-Amino-5-oxo-7,8-dihydropyrimido[5,4-f][1,4]oxazepin-6(5H)-yl)phenyl]cyclohex-3-en-1-yl}acetic Acid] |  |
| 55.5 | 29.1 to 89.6 |  |  | Nc1ncnc2c1C(=O)N(c1ccc(C3CCC(CC(=O)O)CC3)cc1F)CCO2 (stereo not drawn) [Example 6, 2-(4-(4-(4-amino-5-oxo-7,8-dihydropyrimido[5,4-f][1,4]oxazepin-6(5H)-yl)-3-fluorophenyl)cyclohexyl)acetic Acid] |  |
|  |  | 4.4 to 6.9 | 5.82 | Nc1ncnc2c1C(=O)N(c1ccc(C3CCC(CC(=O)O)CC3)c(Cl)c1)CCO2 (stereo not drawn) [Example 18, 2-(4-(4-(4-amino-5-oxo-7,8-dihydropyrimido[5,4-f][1,4]oxazepin-6(5H)-yl)-2-chlorophenyl)cyclohexyl)acetic acid] |  |
|  |  | 3 to 15.5 | < 8.26 | Nc1ncnc2c1C(=O)N(c1ccc(C3CCC(CC(=O)O)CC3)c(F)c1)CCO2 (stereo not drawn) [Example 19, 2-(4-(4-(4-amino-5-oxo-7,8-dihydropyrimido[5,4-f][1,4]oxazepin-6(5H)-yl)-2-fluorophenyl)cyclohexyl)acetic acid] |  |
|  |  | 8.6 to 17.2 | 13 | Cc1cc(N2CCOc3ncnc(N)c3C2=O)ccc1C1CCC(CC(=O)O)CC1 (stereo not drawn) [Example 20, 2-(4-(4-(4-amino-5-oxo-7,8-dihydropyrimido[5,4-f][1,4]oxazepin-6(5H)-yl)-2-methylphenyl)cyclohexyl)acetic acid] |  |
|  |  | 643 to 2270 | 1410 | Cc1cc(C2CCC(CC(=O)O)CC2)ccc1N1CCOc2ncnc(N)c2C1=O (stereo not drawn) [Example 23, 2-(4-(4-(4-amino-5-oxo-7,8-dihydropyrimido[5,4-f][1,4]-oxazepin-6(5H)-yl)-3-methylphenyl)cyclohexyl)acetic acid] |  |
| 44.5 | 34.2 to 75 |  |  | CS(=O)(=O)NC(=O)C[C@H]1CC[C@H](c2ccc(N3CCOc4ncnc(N)c4C3=O)cc2)CC1 [Example 26, 2-{Trans-4-[4-(4-amino-5-oxo-7,8-dihydropyrimido[5,4-f][1,4]oxazepin-6(5H)-yl)phenyl]cyclohexyl}-N-(methylsulfonyl)acetamide] |  |
